What was measured:
[1] = tested on: Eotaxin-3 (CCL26) release in human whole blood stimulated with IL-4; assay: Human Whole Blood Eotaxin-3 Assay (IL-4 stimulated, inhibition of eotaxin-3 release); format: cell-based; details: EC50 provided for test compounds with >80% Emax, geometric mean across assay runs and batches
Protocol: This was a human whole blood assay using recombinant human Interleukin 4 to stimulate the blood and measuring the ability of the test compounds to inhibit eotaxin-3 release. The biological activities of the test compounds have been tested in human whole blood stimulated with IL-4 measuring Eotaxin-3 release. The test compounds were added to 384 well clear flat-bottom plate in a 4-fold serial dilution in triplicates using a liquid handler. Human whole blood stabilized in lithium-heparin tubes was added in a volume of 65 uL per well, resulting in a final DMSO concentration of 0.5%. The plate is incubated for 2 h at 37° C. under 5% CO2/95% air. Subsequently, 5 μL of recombinant human IL-4 (R&D Systems, cat #204-ILB) was added to the wells to a final concentration of 400 pM. The plate was incubated for 48 h at 37° C. under 5% CO2/95% air. The plate was spun down for 10 minutes at 500×g and 20 uL supernatant was harvested and transferred to a 384 well v-bottom plate using a liquid handler and stored at −20° C. until further analysis. 10 uL supernatant was used to measure the level of Eotaxin-3 (CCL26) using Human Eotaxin-3 MSD kit from Mesocsale (Cat #K251UEK-4). The assay was performed according to the manufacture instructions.
The data from the human whole blood eotaxin-3 assay is shown below for Examples 2q11, 2110, and 2c49 (where the effect in % is plotted against the test concentration in M on a log-scale).

[2] = target: T1, STAT6 (endogenous, HiBiT-tagged) in HeLa LgBiT clone 4.14 cells (Homo sapiens, UniProt P42226); assay: STAT6 Degrader Assay (HiBiT based, HeLa LgBiT clone 4.14 cells, luminescence, DC50); format: cell-based; details: geometric mean; for DC50: DC50 provided for test compounds with >80% Emax, read-out: STAT6 degradation DC50; for Emax: Emax provided for test compounds with <80% Emax (and 2c15), read-out: STAT6 degradation Emax
T1 construct: These cells express endogenous STAT6; host or cells: HeLa LgBiT clone 4.14
T1 sequence (P42226 1-847): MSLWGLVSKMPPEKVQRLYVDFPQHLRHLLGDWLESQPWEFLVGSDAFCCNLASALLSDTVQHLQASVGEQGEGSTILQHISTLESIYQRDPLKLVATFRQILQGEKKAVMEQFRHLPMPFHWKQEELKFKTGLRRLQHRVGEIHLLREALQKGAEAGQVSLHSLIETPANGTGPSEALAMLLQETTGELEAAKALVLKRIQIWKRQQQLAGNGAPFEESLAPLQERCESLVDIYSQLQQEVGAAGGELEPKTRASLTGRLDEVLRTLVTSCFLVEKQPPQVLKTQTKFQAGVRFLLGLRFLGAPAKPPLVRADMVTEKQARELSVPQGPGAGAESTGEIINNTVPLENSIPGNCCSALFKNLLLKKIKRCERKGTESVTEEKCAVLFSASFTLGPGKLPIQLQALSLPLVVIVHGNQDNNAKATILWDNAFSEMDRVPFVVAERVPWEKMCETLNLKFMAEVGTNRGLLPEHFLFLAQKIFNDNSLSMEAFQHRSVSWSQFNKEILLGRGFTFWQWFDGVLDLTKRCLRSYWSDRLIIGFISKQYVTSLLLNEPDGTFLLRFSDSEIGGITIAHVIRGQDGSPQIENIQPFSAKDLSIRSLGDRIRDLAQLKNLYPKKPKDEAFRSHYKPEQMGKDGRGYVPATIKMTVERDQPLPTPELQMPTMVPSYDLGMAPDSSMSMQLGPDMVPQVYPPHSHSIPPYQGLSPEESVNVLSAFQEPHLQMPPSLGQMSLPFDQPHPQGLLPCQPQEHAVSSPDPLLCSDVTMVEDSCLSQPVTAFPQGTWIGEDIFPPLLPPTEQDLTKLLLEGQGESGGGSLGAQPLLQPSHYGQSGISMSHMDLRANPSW
How it was run: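 HeLa LgBiT clone 4.14 cells carry CRISPR-inserted HiBiT on endogenous STAT6; 5000 cells/well were exposed to compound for 4-24 h at 37 °C, 5% CO2. Nano-Glo substrate added for 0.5 h; luminescence reflects remaining STAT6, with terfenadine ([…]) wells defining 100% degradation.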

Structure (SMILES)	EC50 ([1]; Homo sapiens) [nM]	DC50 [2] [nM]	EC50 [1] [nM]	Emax [2] [%]
C[C@@H](c1cc2c(-c3ccc(N)nc3)ccnc2n1C)N1CCC(c2ccc(C(=O)N3CCC(CN4CCN(c5ccc(N[C@H]6CCC(=O)NC6=O)cc5F)CC4)CC3)cc2)CC1 (single isomer, unassigned) [Example 2c19]	109	10.5		
C[C@@H](c1cc2c(-c3ccc(N)nc3)ccnc2n1C)N1CCC(c2ccc(C(=O)N3CCC(CN4CCN(c5ccc(N[C@H]6CCC(=O)NC6=O)cc5F)CC4)CC3)cc2)CC1 (single isomer, unassigned) [Example 2c20]		9.6	82.8	
COCc1nc2cc(-c3ccnc4c3cc([C@H](C)N3CCC(c5ccc(C(=O)N6CCC(CN7CCN(c8ccc(N[C@H]9CCC(=O)NC9=O)cc8F)CC7)CC6)cc5)CC3)n4C)ccc2[nH]1 (single isomer, unassigned) [Example 2c53]	30.9	4.7		
C[C@@H](c1cc2c(-c3ccc(N)nc3)ccnc2n1C)N1CCC(c2ccc(C(=O)N3CCC(CN4CCN(c5ccc(NC6CCC(=O)NC6=O)cc5F)CC4)CC3)cc2)CC1 (stereo partly drawn) [Example 2c14, 3-((4-(4-((1-(4-(1-((S)-1-(4-(6-aminopyridin-3-yl)-1-methyl-1H-pyrrolo[2,3-b]pyridin-2-yl)ethyl)-piperidin-4-yl)benzoyl)piperidin-4-yl)methyl)piperazin-1-yl)-3-fluorophenyl)amino)piperidine-2,6-dione]	65	6.6		
CO[C@@H](C)c1nc2cc(-c3ccnc4c3cc([C@H](C)N3CCC(c5ccc(C(=O)N6CCC(CN7CCN(c8ccc(NC9CCC(=O)NC9=O)cc8F)CC7)CC6)cc5)CC3)n4C)ccc2[nH]1 (stereo partly drawn) [Example 2c18, 3-((3-fluoro-4-(4-((1-(4-(1-((S)-1-(4-(2-((S)-1-methoxyethyl)-1H-benzo[d]imidazol-5-yl)-1-methyl-1H-pyrrolo[2,3-b]pyridin-2-yl)ethyl)piperidin-4-yl)benzoyl)piperidin-4-yl)methyl)piperazin-1-yl)phenyl)amino)piperidine-2,6-dione]	39	4.8		
C[C@@H](c1cc2c(-c3ccc(N)nc3C#N)ccnc2n1C)N1CCC(c2ccc(C(=O)N3CCC(CN4CCN(c5ccc(NC6CCC(=O)NC6=O)cc5F)CC4)CC3)cc2)CC1 (stereo partly drawn) [Example 2c22, 6-amino-3-(2-((1S)-1-(4-(4-(4-((4-(4-((2,6-dioxopiperidin-3-yl)amino)-2-fluorophenyl)-piperazin-1-yl)methyl)piperidine-1-carbonyl)phenyl)piperidin-1-yl)ethyl)-1-methyl-1H-pyrrolo[2,3-b]pyridin-4-yl) picolinonitrile]	153	28.2		
C[C@@H](c1cc2c(-c3ccc(N)nc3)ccnc2n1C)N1CCC(c2ccc(C(=O)N3CCC(F)(CN4CCN(c5ccc(NC6CCC(=O)NC6=O)cc5F)CC4)CC3)cc2)CC1 (stereo partly drawn) [Example 2c23, 3-((4-(4-((1-(4-(1-((S)-1-(4-(6-aminopyridin-3-yl)-1-methyl-1H-pyrrolo[2,3-b]pyridin-2-yl)ethyl)-piperidin-4-yl)benzoyl)-4-fluoropiperidin-4-yl)methyl)piperazin-1-yl)-3-fluorophenyl)amino)-piperidine-2,6-dione]	49.2	9.6		
C[C@@H](c1cc2c(-c3cnc(N)c(F)c3)ccnc2n1C)N1CCC(c2ccc(C(=O)N3CCC(CN4CCN(c5ccc(NC6CCC(=O)NC6=O)cc5F)CC4)CC3)cc2)CC1 (stereo partly drawn) [Example 2c24, 3-((4-(4-((1-(4-(1-((S)-1-(4-(6-amino-5-fluoropyridin-3-yl)-1-methyl-1H-pyrrolo[2,3-b]pyridin-2-yl)ethyl)piperidin-4-yl)benzoyl)piperidin-4-yl)methyl)piperazin-1-yl)-3-fluorophenyl)-amino)piperidine-2,6-dione]	792	44.7		
C[C@@H](c1cc2c(-c3ccc(NCCO)nc3)ccnc2n1C)N1CCC(c2ccc(C(=O)N3CCC(CN4CCN(c5ccc(NC6CCC(=O)NC6=O)cc5F)CC4)CC3)cc2)CC1 (stereo partly drawn) [Example 2c26, 3-((3-fluoro-4-(4-((1-(4-(1-((S)-1-(4-(6-((2-hydroxyethyl)amino)pyridin-3-yl)-1-methyl-1H-pyrrolo[2,3-b]pyridin-2-yl)ethyl)piperidin-4-yl)benzoyl)piperidin-4-yl)methyl)piperazin-1-yl)phenyl)-amino)piperidine-2,6-dione]	188			60 to 70
C[C@@H](c1cc2c(-c3ccc(N)nn3)ccnc2n1C)N1CCC(c2ccc(C(=O)N3CCC(CN4CCN(c5ccc(NC6CCC(=O)NC6=O)cc5F)CC4)CC3)cc2)CC1 (stereo partly drawn) [Example 2c27, 3-((4-(4-((1-(4-(1-((S)-1-(4-(6-aminopyridazin-3-yl)-1-methyl-1H-pyrrolo[2,3-b]pyridin-2-yl)ethyl)piperidin-4-yl)benzoyl)piperidin-4-yl)methyl)piperazin-1-yl)-3-fluorophenyl)amino)piperidine-2,6-dione]	169			70 to 80

Further lines, results first:

EC50 ([1]; Homo sapiens) [nM]	DC50 [2] [nM]	EC50 [1] [nM]	Emax [2] [%]	Structure (SMILES)
30.7	3.9			COCc1nc2cc(-c3ccnc4c3cc([C@H](C)N3CCC(c5ccc(C(=O)N6CCC(CN7CCN(c8ccc(N[C@@H]9CCC(=O)NC9=O)cc8F)CC7)CC6)cc5)CC3)n4C)ccc2[nH]1 (single isomer, unassigned) [Example 2c52]
19.7	4.1			COCc1nc2cc(-c3ccnc4c3cc([C@H](C)N3CCC(c5ccc(C(=O)N6CCC(CN7CCN(c8ccc(N[C@H]9CCC(=O)NC9=O)cc8F)C[C@H]7C)CC6)cc5)CC3)n4C)ccc2[nH]1 (single isomer, unassigned) [Example 2f12]
15.6	2.5			COCc1nc2cc(-c3ccnc4c3cc([C@H](C)N3CCC(c5ccc(C(=O)N6CCC(CN7CCN(c8ccc(N[C@@H]9CCC(=O)NC9=O)cc8F)C[C@H]7C)CC6)cc5)CC3)n4C)ccc2[nH]1 (single isomer, unassigned) [Example 2f13]
3.2	1			C[C@@H](c1cc2c(-c3ccc(N)nc3)ccnc2n1C)N1CCC(c2ccc(C(=O)N3CCn4nc(CN5CCC(c6ccc(N[C@@H]7CCC(=O)NC7=O)cc6F)CC5)cc4C3)cc2)CC1 (single isomer, unassigned) [Example 2q10]
5.9	0.8			C[C@@H](c1cc2c(-c3ccc(N)nc3)ccnc2n1C)N1CCC(c2ccc(C(=O)N3CCn4nc(CN5CCC(c6ccc(N[C@H]7CCC(=O)NC7=O)cc6F)CC5)cc4C3)cc2)CC1 (single isomer, unassigned) [Example 2q11]
22.6	1.2			COCc1nc2ccc(-c3ccnc4c3cc([C@H](C)N3CCC(c5ccc(C(=O)N6CCC(CN7CCN(c8ccc(NC9CCC(=O)NC9=O)cc8F)CC7)CC6)cc5)CC3)n4C)cc2[nH]1 (stereo partly drawn) [Example 2c16, 3-((3-fluoro-4-(4-((1-(4-(1-((S)-1-(4-(2-(methoxymethyl)-1H-benzo[d]imidazol-6-yl)-1-methyl-1H-pyrrolo[2,3-b]pyridin-2-yl)ethyl)piperidin-4-yl)benzoyl)piperidin-4-yl)methyl)piperazin-1-yl)phenyl)amino)piperidine-2,6-dione]

Reference: US20260014147A1, “STAT6 DEGRADERS” (Gilead Sciences, Inc., priority 2024, published 2026)
